Marks after values point to notes of the source that are not given here.

The subject of one assay is endothelial function. Description: Reflection index (RI), salbutamol challenge test with digital volume plethysmography, type 2 diabetics. It is filed as in vivo, human. Conditions: DM; 400 mcg. As to the method:
(§1) The present clinical study is a prospective, randomized, double blind, placebo-controlled study. Patients of either sex, aged 30-65 years, fasting plasma glucose of 110-126 mg/dl, a glycosylated hemoglobin (HbA1c) between 6.5% and 8% and taking stable dose of anti-diabetic treatment (metformin 1500-2000 mg/day) for the past 8 weeks prior to the screening visit; and having endothelial dysfunction defined as ≤6% change in reflection index (RI) on post salbutamol challenge test were included in the study. Patients with severe uncontrolled hyperglyceamia, uncontrolled hypertension, cardiac arrhythmia, impaired hepatic or renal function, history of malignancy or stroke, smoking, chronic alcoholism, any other serious disease requiring active treatment and treatment with any other herbal supplements, were excluded from the study.
(§2) After screening, all the eligible subjects were randomized to receive either one of the three treatments orally for duration of 12 weeks—Group1—one capsule of Crominex®3+, 200 mcg once daily, Group 2—one capsule Crominex®3+, 400 mcg once daily; Group 3—one capsule of placebo once daily.
(§3) Subjects were required for follow up at 4, 8 and 12 weeks of therapy. At each visit they were evaluated for efficacy and safety. Pharmacodynamic evaluation for endothelial function was conducted at every visit. Blood samples were collected for evaluation of biomarkers before and at the end of treatment. Safety lab investigations for hematological, hepatic and renal biochemical parameters were conducted before and at the end of the study and also as and when required (in case of any adverse drug reaction (ADR). Subjects were enquired for the presence of ADR and the same was recorded in the case report form. Compliance to therapy was assessed by pill count method.
Procedure for Assessment of Endothelial Function by Determination of Reflection Index (RI).
A salbutamol (albuterol) challenge test employing digital volume plethysmography was used to assess endothelial function as reported by Chowienczyk et al., “Photoplethysmographic assessment of pulse wave reflection: blunted response to endothelium dependant beta 2-adrenergic vasodilation in type 2 diabetes mellitus,” J. Am. Coll. Cardiol. (1999 December) 34(7):2007-14; and Naidu, et al., “Comparison of two β2 adrenoceptor agonists by different routes of administration to assess human endothelial function,” Indian J. Pharmacol. (2007) 39:168-9. The patients were examined in supine position after 5 minutes of rest. A digital volume pulse (DVP) was obtained using a photo plethysmograph (Pulse Trace PCA2, PT200, Micro Medical, Gallingham, Kent, UK) transmitting infrared light at 940 nm, placed on the index finger of the right hand. The signal from the plethysmograph was digitized using a 12 bit analogue to digital converter with a sampling frequency of 100 Hz. DVP waveforms were recorded over 20 second period and the height of the late systolic/early diastolic portion of the DVP was expressed as a percentage of the amplitude of the DVP to yield the reflection index (RI), per the procedure described in detail by Millasseau et al., “Determination of age related increases in large artery stiffness by digital pulse contour analysis,” Clinical Science (2002) 103: 371-377. Three DVP recordings were taken, and measurements of reflection index (RI) were calculated and the mean value was determined. Patients were then administered 400 μg of salbutamol by inhalation. After 15 minutes three measurements of RI were obtained again and the difference in mean RI before and after administration of salbutamol was used for assessing endothelial function. A change of ≤6% in RI post-salbutamol was considered as endothelial dysfunction.
The primary efficacy measure was a change in endothelial dysfunction as assessed by more than 6% change in reflection index at 12 weeks. […]
Consider chromium picolinate, for which the RI is given as −2.2%.
Consider chromium polynicotinate, for which the RI is −1.04%.

The assay is the same for the next values; noted with them: type 2 diabetics (Example 3); chromium products 400 mcg; 12 week treatment.
Consider chromium picolinate, for which the “Absolute change of RI” value was −2.22 + 0.89 # %.
The same measure, in the same setting: next, chromium polynicotinate: −1.04 + 0.39 #NS %.

The assay is the same for the next values; noted with them: type 2 diabetics (Example 3); chromium products 400 mcg; post-treatment, 12 weeks.
As for chromium picolinate, the “Reflection index (%) Post Tt” value was −2.46 ± 0.90 %.
The same measure, in the same setting: next, chromium polynicotinate: −3.71 ± 1.1 $ %.

The assay is the same for the next values; noted with them: type 2 diabetics (Example 3); chromium products 400 mcg; pre-treatment.
chromium picolinate: the “Reflection index (%) Pre Tt” value is on record as −4.68 ± 1.24^ %.
Still for that read-out and setting: the same measure for chromium polynicotinate: −4.3 ± 1.2%.

Another assay relates to nitric oxide (NO). Briefly: Nitric oxide level, spectrophotometric, type 2 diabetics. The settings on record: DM; 400 mcg. Format: in vivo, human. As for the experimental part:
as §1, §2, §3
(§4) Nitric oxide, MDA, Glutathione and levels were estimated spectrophotometrically as follows. Malondialdehyde (MDA) levels were determined as described in Vidyasagar, et al., “Oxidative stress and antioxidant status in acute organophosphorous insecticide poisoning,” Indian J. Pharmacol. (April 2004) 36(2): 76-79. Glutathione levels were determined as described in G. L. Ellman, Arch. Biochem. Biophys. (1959) 82: 70-77 (original determination). Nitric oxide levels were estimated spectrophotometrically as described in Miranda, et al., “A Rapid, Simple Spectrophotometric Method for Simultaneous Detection of Nitrate and Nitrite,” NITRIC OXIDE: Biology and Chemistry (2001) Vol. 5, No. 1, pp. 62-71. hsCRP (high sensitivity C-reactive protein) was determined by ELISA method.
(§5) When the results with Crominex® 3+ in the above two examples were highly significant, especially with the 400 mcg once daily dose in type 2 diabetics, two more clinical studies (EXAMPLES 3 & 4) were conducted at the same institute, following the same methodology as described earlier, on the individual components of Crominex® 3+, i.e., chromium chloride and Phyllanthus emblica+Shilajit, and other chromium supplements available in the market, i.e., chromium picolinate, chromium polynicotinate and chromium dinicocysteinate, in type 2 diabetics as well as in subjects with metabolic syndrome symptoms.
The substance chromium picolinate returned an NO of 11.1%.
On the same count and under the same terms, the same measure for chromium polynicotinate: 5.33%.

Staying with this assay, now noted: type 2 diabetics (Example 3); chromium products 400 mcg; 12 week treatment.
In the case of chromium picolinate, the “Mean percentage change in NO” value is on record as 11.09 ± 4.73@NS %.
On the same count and under the same terms, next, chromium polynicotinate: 5.33 ± 2.25 #@NS %.

The assay is the same for the next values; noted with them: type 2 diabetics (Example 3); chromium products 400 mcg; post-treatment, 12 weeks.
As to chromium picolinate, the “NO Post Tt” value stood at 32.96 ± 2.54 μM/L.
Turning to chromium polynicotinate, the “NO Post Tt” value worked out at 31.86 ± 2.55 μM/L.

The assay is the same for the next values; noted with them: type 2 diabetics (Example 3); chromium products 400 mcg; pre-treatment.
In the case of chromium picolinate, the “NO Pre Tt” value came to 29.75 ± 2.92 μM/L.
In the case of chromium polynicotinate, the “NO Pre Tt” value worked out at 30.26 ± 2.48 μM/L.

The next assay deals with glutathione (GSH). Briefly: Glutathione level, spectrophotometric, type 2 diabetics. It is filed as in vivo, human. The settings on record: DM; 400 mcg. As for the experimental part: as §1, §2, §3, §4, §5
The substance chromium picolinate gave a GSH of 7.2%.
Same read-out and setting: the same measure for chromium polynicotinate: 5.3%.

The same assay, now with this note: type 2 diabetics (Example 3); chromium products 400 mcg; 12 week treatment.
As for chromium picolinate, the “Mean percentage change in GSH” value is 7.20 ± 0.82 #@NS %.
In the case of chromium polynicotinate, the “Mean percentage change in GSH” value is reported as 5.30 ± 1.04 #@NS %.

Staying with this assay, now noted: type 2 diabetics (Example 3); chromium products 400 mcg; post-treatment, 12 weeks.
As for chromium picolinate, the “GSH Post Tt” value was determined as 535.96 ± 31.89 μM/L.
On the same count and under the same terms, the same measure for chromium polynicotinate: 534.54 ± 32.56 μM/L.

Still in this assay, the particulars now being: type 2 diabetics (Example 3); chromium products 400 mcg; pre-treatment.
Consider chromium picolinate, for which the “GSH Pre Tt” value is reported as 499.99 ± 30.23 μM/L.
Same read-out and setting: next, chromium polynicotinate: 507.72 ± 31.73 μM/L.

The next assay concerns fasting plasma glucose. Briefly: Fasting plasma glucose, type 2 diabetics. It is filed as in vivo, human. The settings on record: DM; 400 mcg. As for the experimental part: as §5
Consider chromium picolinate, for which the “Fasting Glucose” value worked out at 1.2%.
Same read-out and setting: next, chromium polynicotinate: 0.63%.

Staying with this assay, now noted: type 2 diabetics (Example 3); chromium products 400 mcg; post-treatment, 12 weeks.
For chromium picolinate, the “Fasting Plasma Glucose Post Tt” value is listed as 134.84 ± 6.78 NS mg/dL.
As to chromium polynicotinate, the “Fasting Plasma Glucose Post Tt” value was 136.3 ± 7.86 NS mg/dL.

Staying with this assay, now noted: type 2 diabetics (Example 3); chromium products 400 mcg; pre-treatment.
Turning to chromium picolinate, the “Fasting Plasma Glucose Pre Tt” value came to 133.21 ± 8.27 mg/dL.
Same read-out and setting: next, chromium polynicotinate: 135.45 ± 7.45 mg/dL.

Another assay relates to malondialdehyde (MDA). Description: Malondialdehyde level, metabolic syndrome subjects. It is filed as in vivo, human. Conditions: MS; 400 mcg. As for the experimental part:
as §4
(§6) Patients included in the study, were of either gender, aged 30-68 years, having endothelial dysfunction defined as ≤6% change in reflection index (RI) on post salbutamol challenge test and central obesity as defined by The International Diabetes Federation guidelines, dated 2006, and any two of the following conditions:
(§7) After screening, all the eligible subjects were randomized to receive either one of the three treatments orally for duration of 12 weeks: group 1—one capsule of Crominex®3+ 200 mcg once daily; group 2—one capsule 400 mcg once daily; group 3—one capsule of Placebo once daily.
(§8) Subjects were reviewed for follow up at 4 weeks, 8 and 12 weeks of therapy. At each visit they were evaluated for efficacy and safety. Pharmacodynamic evaluation for endothelial function was conducted at baseline and end of treatment. Blood samples were collected for evaluation of biomarkers before and at end of treatment. Safety lab investigations for hematological, hepatic and renal biochemical parameters were conducted before and at the end of the study and also as and when required (in case of any adverse drug reaction (ADR)). Subjects were enquired for the presence of ADR and the same was recorded in the case report form. Compliance to therapy was assessed by pill count method.
Assessment of endothelial function, biomarkers, safety parameters and primary and secondary efficacy parameters and data analysis were performed as described under the study with type 2 diabetic subjects in Example 1.
as §5
As to chromium picolinate, the MDA is −7.1%.
Same read-out and setting: the same measure for chromium polynicotinate: −5.4%.

Staying with this assay, now noted: metabolic syndrome subjects (Example 4); chromium products 400 mcg; after 12 weeks of treatment.
As for chromium picolinate, the “MDA Post Tt” value is 3.60 ± 0.46 nM/ml.
In the case of chromium polynicotinate, the “MDA Post Tt” value turned out to be 3.83 ± 0.41 nM/ml.

The assay is the same for the next values; noted with them: metabolic syndrome subjects (Example 4); chromium products 400 mcg; after 12 weeks treatment.
For the substance chromium picolinate, the “Mean percentage change in MDA” value is on record as −7.14 ± 1.70%.
Same read-out and setting: next, chromium polynicotinate: −5.38 ± 1.31%.

Still in this assay, the particulars now being: metabolic syndrome subjects (Example 4); chromium products 400 mcg; pre-treatment.
As for chromium picolinate, the “MDA Pre Tt” value was determined as 3.87 ± 0.47 nM/ml.
Still for that read-out and setting: the same measure for chromium polynicotinate: 4.04 ± 0.40 nM/ml.

Test system in the next assay: not listed separately
Briefly: Blood pressure, metabolic syndrome subjects. Format: in vivo, human. Conditions: metabolic syndrome subjects (Example 4); chromium products 400 mcg; after 12 weeks of treatment.
Excerpt: as §6, §7, §8, §5
Consider chromium picolinate, for which the “Diastolic blood pressure Post Tt” value turned out to be 78.1 ± 2.26 NS mmHg and the “Systolic blood pressure Post Tt” value was 121.5 ± 4.15 NS mmHg.
In the same order, the values of chromium polynicotinate are 79.7 ± 2.85 NS mmHg and 124.1 ± 4.88 NS mmHg.

The same assay, now with this note: metabolic syndrome subjects (Example 4); chromium products 400 mcg; pre-treatment.
With chromium picolinate, the “Diastolic blood pressure Pre Tt” value is reported as 79.2 ± 3.58 mmHg and the “Systolic blood pressure Pre Tt” value turned out to be 123.1 ± 5.39 mmHg.
In the same order, the values of chromium polynicotinate are 81.2 ± 3.07 mmHg and 125.9 ± 5.17 mmHg.

The record behind these values is patent US10183047B2, “Chromium-containing compositions in combination with Phyllanthus emblica and shilajit having synergistic effects for improving endothelial function and cardiovascular health” (Natreon, Inc., priority 2014, dated 2019).
